Source: PubChem BioAssay (NCI)
Several values for one entry are separate records, joined by “and”; a condition that tells them apart may be missing. Identical values can stand only once.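 Values below derive from 48-hour exposures of cells grown in 96-well plates, with endpoints linearly interpolated between the two concentrations bracketing the appropriate inhibition level. Abbreviation: GI50, concentration required for 50% inhibition of growth. Definition used: TGI = concentration required for complete inhibition of growth.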

Experiments:
Test in all cases: NCI anticancer screen, dose series, 48 h
ACHN renal = test system: ACHN renal
IGROV1 ovarian = test system: IGROV1 ovarian
LOX IMVI melanoma = test system: LOX IMVI melanoma
M14 melanoma = test system: M14 melanoma
NCI-H226 lung = test system: NCI-H226 lung
SF-268 CNS = test system: SF-268 CNS
SF-295 CNS = test system: SF-295 CNS
SNB-75 CNS = test system: SNB-75 CNS
UACC-62 melanoma = test system: UACC-62 melanoma
UO-31 renal = test system: UO-31 renal

SMILES	GI50 (ACHN renal) [µM]	TGI (ACHN renal)	GI50 (IGROV1 ovarian) [µM]	TGI (IGROV1 ovarian) [µM]	GI50 (LOX IMVI melanoma) [µM]	TGI (LOX IMVI melanoma)	GI50 (M14 melanoma) [µM]	TGI (M14 melanoma) [µM]	GI50 (NCI-H226 lung) [µM]	TGI (NCI-H226 lung) [µM]	GI50 (SF-268 CNS) [µM]	TGI (SF-268 CNS) [µM]	GI50 (SF-295 CNS) [µM]	TGI (SF-295 CNS) [µM]	GI50 (SNB-75 CNS) [µM]	TGI (SNB-75 CNS) [µM]	GI50 (UACC-62 melanoma) [µM]	TGI (UACC-62 melanoma)	GI50 (UO-31 renal) [µM]	TGI (UO-31 renal)
Cn1cc(C2=C(c3cn(C)c4c(N)cccc34)C(=O)NC2=O)c2ccccc21	1.34	> 23.9 µM	4.2	> 19.6	1.94	> 25 µM	2.15	> 25	3.28	> 22.1	2.86	> 25	0.898	> 11.6	0.352	2.63	2.48	18.1 µM	1.1	10.5 µM
Cn1cc(C2=C(c3cn(CCCN=C(N)N)c4ccccc34)C(=O)NC2=O)c2ccccc21	> 25	> 25 µM	14.8	> 25	> 25	> 25 µM	> 25	> 25	> 25	> 25	> 25	> 25	> 25	> 25	0.361	> 25	> 25	> 25 µM	> 25	> 25 µM
CCOC(=O)[C@H]1Nc2ccc(C)cc2C2c3ccccc3CC21 (stereo partly specified)	–	> 100 µM	–	> 100	–	> 100 µM	–	> 100	–	> 100	–	> 100	–	> 100	–	> 100	–	> 100 µM	–	> 100 µM
COc1cc2c(/C=C3/C(=O)Nc4cccc(Cl)c43)c(Cl)n(Cc3ccccc3)c2cc1C	3.58	33.3 µM	7.42	> 100	4.42	23.7 µM	4.79	> 40.5	1.78	11.1	13.1	> 71.5	2.11	21.2	21.1	> 100	1.67	24.1 µM	5.69	> 100 µM
N#Cc1cnsc1	–	> 100 µM	–	> 100	–	> 100 µM	–	> 100	–	> 100	–	> 100	–	> 100	–	> 100	–	> 100 µM	–	> 100 µM
COc1ccc(C2CC(=O)c3c(O)c(OC)c(OC)c(OC)c3O2)c(O)c1 (stereo unspecified)	1.2	58.2 µM	0.535	39.6	0.432	19.2 µM	0.0834	15.4	4.49	24.7	0.534	38.3	0.349	14.6	0.0625	0.858	0.0566	20.2 µM	1.09	21.4 µM
O=C(/C=C/c1ccccc1Cl)c1ccccc1Cl	–	31.1 µM	–	33.3	–	–	–	47.2	–	> 100	–	50.5	–	51.2	–	74.9	–	36.7 µM	–	34.3 µM
COC(=O)CSc1n[nH]c(-c2ccc(O)c([N+](=O)[O-])c2)n1	–	> 100 µM	–	> 100	–	> 100 µM	–	> 100	–	> 100	–	> 100	–	> 100	–	> 100	–	> 100 µM	–	> 100 µM
COc1cc([C@@H]2c3cc4c(cc3C(O[C@@H]3O[C@@H]5CO[C@@H](c6cccs6)OC5[C@H](O)[C@H]3O)C3COC(=O)[C@@H]32)OCO4)cc(OC)c1O (stereo partly specified)	0.0269	0.711 µM	0.228	5.13	0.017	0.911 µM	0.0732	0.888	0.0223	0.149	0.0693	1.54	0.0224	0.712	0.0659	0.491	0.0409	1.1 µM	0.179	1.14 µM
CCN(CC)C(=O)C/C(C)=N/NC(=O)c1ccncc1	–	–	–	> 100	–	> 100 µM	–	> 100	–	> 100	–	> 100	–	> 100	–	> 100	–	> 100 µM	–	> 100 µM
Cc1c2c(nn1-c1ccc(S(=O)(=O)/N=C3\SCC(=O)N3C(=O)c3ccccc3)cc1)-c1ccccc1CC2	24.6	70.2 µM	> 100	> 100	> 100	> 100 µM	22.9	47.1	24	56.4	44.6	> 100	21.6	58.2	–	–	18.7	37.6 µM	67.4	> 100 µM
CCCCn1c(-c2ccc(C(=O)O/N=C(\N)c3ccc(OC)cc3)cc2)nc(-c2ccccc2)c1-c1ccccc1	0.599	1.85 µM	0.334	1.16	0.181	0.342 µM	3.07	> 100	–	–	–	–	1.53	2.97	1.36	3.05	1.88	4.58 µM	0.458	1.65 µM
COc1cccc(N=Cc2c3ccccc3c(=O)n3c2oc2ccccc23)c1	7.11	30 µM	5.86	> 100	5.13	30.3 µM	12.2	> 100	–	–	37.1	> 100	4.53	30.1	54.8	> 100	2.58	12.9 µM	42.7	> 100 µM
C#CC[C@]12CC(=O)CC[C@H]1CC(=O)C2	–	> 100 µM	–	> 100	–	–	–	> 100	–	> 100	–	> 100	–	–	–	> 100	–	> 100 µM	–	> 100 µM
COc1ccc(C2CC(=O)c3c(OC)cc(OC)cc3O2)cc1 (stereo unspecified)	> 100	> 100 µM	> 100	> 100	> 100	> 100 µM	–	–	> 100	> 100	> 100	> 100	> 100	> 100	> 100	> 100	> 100	> 100 µM	> 100	> 100 µM
CC(=O)SCCC1c2[nH]c3ccccc3c2CCN1O (stereo unspecified)	–	> 100 µM	–	> 100	–	> 100 µM	–	> 100	–	–	–	> 100	–	> 100	–	86.4	–	> 100 µM	–	> 100 µM
COc1ccc2cc(C(=O)/C=C/c3cccc(OC)c3OC)ccc2c1	8.38	22.2 µM	–	–	–	–	4.58	16.6	–	–	24.2	50.8	–	–	18.5	35.6	2.77	11 µM	17.5	31.3 µM

SMILES	GI50 (ACHN renal) [µM]	TGI (ACHN renal)	GI50 (IGROV1 ovarian) [µM]	TGI (IGROV1 ovarian) [µM]	GI50 (LOX IMVI melanoma) [µM]	TGI (LOX IMVI melanoma)	GI50 (M14 melanoma) [µM]	TGI (M14 melanoma) [µM]	GI50 (NCI-H226 lung) [µM]	TGI (NCI-H226 lung) [µM]	GI50 (SF-268 CNS) [µM]	TGI (SF-268 CNS) [µM]	GI50 (SF-295 CNS) [µM]	TGI (SF-295 CNS) [µM]	GI50 (SNB-75 CNS) [µM]	TGI (SNB-75 CNS) [µM]	GI50 (UACC-62 melanoma) [µM]	TGI (UACC-62 melanoma)	GI50 (UO-31 renal) [µM]	TGI (UO-31 renal)
O=C(CC(=O)N1N=C(c2ccccc2)C(N=Nc2ccc(Cl)cc2)C1=O)Nc1ccccc1Cl (stereo unspecified)	–	48.8 µM	–	> 100	–	> 100 µM	–	> 100	–	62.6	–	78	–	–	–	41.3	–	53.3 µM	–	78 µM
COc1cc2c3c(n(CCCCl)c(=O)c2cc1OC)-c1ccccc1C3=O	19.2	> 100 µM	–	–	8.83	> 100 µM	5.96	> 100	–	–	> 100	> 100	0.845	13.3	–	–	12.4	54.9 µM	> 100	> 100 µM
CCc1cccc(C)c1NC(C)=O	–	> 100 µM	–	> 100	–	–	–	> 100	–	> 100	–	–	–	> 100	–	> 100	–	> 100 µM	–	> 100 µM
Nc1c(-c2ccc(Br)cc2)[n+]([O-])c2ccccc2[n+]1[O-]	–	> 100 µM	–	> 100	–	–	–	> 100	–	> 100	–	> 100	–	> 100	–	> 100	–	–	–	> 100 µM
NC1C2(CCCCCC2)NC(=O)C12CCCCCC2 (stereo unspecified)	–	> 100 µM	–	> 100	–	> 100 µM	–	> 100	–	–	–	> 100	–	> 100	–	> 100	–	> 100 µM	–	> 100 µM
CCCCNC(=O)NS(=O)(=O)c1ccc(N2N=C(c3ccc(C)cc3C)CC2c2ccc(N(C)C)cc2)cc1 (stereo unspecified)	3.93	> 100 µM	4.87	> 100	4.4	16.5 µM	4.06	> 100	4.54	21.8	5.73	> 100	–	–	3.81	> 100	2.18	6.12 µM	4.57	> 100 µM
CC(C)(C)OC(=O)N(CCCN(CCn1c2c(c3ccccc3c1=O)C(=O)c1ccccc1-2)C(=O)OC(C)(C)C)CCn1c2c(c3ccccc3c1=O)C(=O)c1ccccc1-2	14.5	> 50 µM	34.5	> 50	> 50	> 50 µM	> 50	> 50	> 50	> 50	28.2	> 50	15.3	> 50	–	–	> 50	> 50 µM	> 50	> 50 µM
Cc1cc(NS(=O)(=O)c2ccc(NC(=O)c3cccc4c(=O)c5ccccc5[nH]c34)cc2)no1	–	> 100 µM	–	> 100	–	> 100 µM	–	–	–	> 100	–	> 100	–	–	–	85.4	–	66.8 µM	–	72.8 µM
CCCCCCCCCCC(O)C1CCC(C2CCC(C(O)CCCCC(O)CCCCCC(O)CC3=CC(C)OC3=O)O2)O1 (stereo unspecified)	1.59	7.79 µM and > 25 µM	–	–	0.218	2.6 µM and > 25 µM	3.76	> 25	> 25	> 25	> 25	> 25	2	> 25	> 25	> 25	> 25	9.08 µM and > 25 µM	1.74	9.95 µM and > 25 µM
Cc1ccc(N=NC(C(=O)c2ccccc2)C(=O)c2ccccc2)cc1	–	> 100 µM	–	> 100	–	–	–	34.5	–	40.6	–	> 100	–	> 100	–	93.4	–	60.8 µM	–	44.4 µM
CC#CC(=O)Nc1ccccc1CC(c1c[nH]c2ccccc12)c1c[nH]c2ccccc12	–	–	–	39.2	–	33.8 µM	–	29.7	–	32.6	–	59	–	58.3	–	38.8	–	28.3 µM	–	25.4 µM
CCOC(=O)NC(=O)c1cn(CCCOC(=O)NCCCCCCNC(=O)OCCCn2c(=O)c(C(=O)NC(=O)OCC)cn(C)c2=O)c(=O)n(C)c1=O	–	> 100 µM	–	> 100	–	> 100 µM	–	> 100	–	> 100	–	> 100	–	–	–	93.9	–	> 100 µM	–	> 100 µM
COc1cc(C(=O)O[C@H](C(N)=O)[C@]2(C)CO2)c2ccccc2c1	15.9	30.9 µM	34.6	98.4	24.7	59.8 µM	15.1	40	20.1	38.4	14.2	36.7	20.4	37.9	–	–	15.9	29.8 µM	33.7	> 100 µM
CC(C)=CC(=O)N1CCN(C(=O)C=C(C)C)CC1	–	> 100 µM	–	> 100	–	> 100 µM	–	> 100	–	–	–	> 100	–	> 100	–	> 100	–	> 100 µM	–	> 100 µM
CC(C)(C)C1=CC(=CC=C2C=CN(CCCCCCCCCCCO)C=C2)C=C(C(C)(C)C)C1=O	–	> 25.2 µM	–	2.26	–	1.69 µM	–	3.57	–	–	–	3.83	–	2.95	–	5.4	–	2.96 µM	–	3.67 µM
CCCCC/C=C/C/C=C/CCCCCCCC1=NC(C)(C)CN1C(C)C	1.7	3.07 µM	1.23	2.47	–	–	1.85	3.4	–	–	1.68	3.05	1.49	2.83	1.44	2.87	1.69	3.12 µM	1.21	2.45 µM
